# pKd: −log10 of the molar value.
# Target: T1, FLT3 (Homo sapiens, UniProt P36888)
# T1 construct: FLT3(DKIN); made in house
# T1 sequence (P36888 610-943 limits assumed): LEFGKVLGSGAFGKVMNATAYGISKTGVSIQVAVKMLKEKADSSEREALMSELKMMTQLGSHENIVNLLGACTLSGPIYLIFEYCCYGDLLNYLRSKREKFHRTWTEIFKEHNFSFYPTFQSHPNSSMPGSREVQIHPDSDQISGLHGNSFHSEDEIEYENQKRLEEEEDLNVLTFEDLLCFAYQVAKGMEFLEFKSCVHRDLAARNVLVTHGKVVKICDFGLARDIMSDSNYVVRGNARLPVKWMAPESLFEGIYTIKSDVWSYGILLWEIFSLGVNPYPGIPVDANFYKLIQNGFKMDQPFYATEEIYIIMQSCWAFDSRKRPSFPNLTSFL
# Assay: Binding constant (Kd) measurement, phage-displayed kinase competition binding assay
# Conditions: FLT3(DKIN) construct
# Source text: Binding Constant (Kd) Measurements for Small-Molecule-Kinase Interactions
# The term “ND” represents non-determined values.
SMILES,Binding Assay: FLT3(DKIN),pKd
COc1ccc(NC(=O)Nc2cc(C(C)(C)C)nn2-c2ccc(C)cc2)cc1 [Compound H15],+ + + +,–
Cc1ccc(-n2nc(C(C)(C)C)cc2NC(=O)Nc2ccc(OCc3ccccc3)cc2)cc1 [Compound H5],+ + + +,–
CC(C)(C)c1cc(NC(=O)Nc2ccccc2)no1 [Compound A34],+ + +,–
Cc1ccc(-n2nc(C(C)(C)C)cc2NC(=O)Nc2ccc(Cl)cc2)cc1 [Compound H14],+ + + +,–
C[S+]([O-])c1ccc(NC(=O)Nc2cc(C(C)(C)C)on2)cc1 (centres unmarked) [Compound A46],+ + +,–
CC(C)(C)c1cc(NC(=O)Nc2ccc(C(=O)O)cc2)no1 [Compound C2],+ +,–
"CC(C)(C)c1cc(NC(=S)Nc2ccc(N3CCOCC3)cc2)no1 [Compound F1, 1-(5-tert-butylisoxazol-3-yl)-3-(4-morpholinophenyl)thiourea]",–,< 5.00
Cc1ccc(-n2nc(C(C)(C)C)cc2NC(=O)Nc2ccc(O)cc2)cc1 [Compound H12],+ + +,–
CC(C)(C)c1cc(NC(=O)Nc2ccc(F)cc2)no1 [Compound A47],+ + +,–
CC(C)c1ccc(NC(=O)Nc2cc(C(C)(C)C)on2)cc1 [Compound A25],+ +,–
Cn1nc(C(C)(C)C)cc1NC(=O)Nc1ccc(Cl)cc1 [Compound D11],+ + +,–
CCCCc1ccc(NC(=O)Nc2cc(C(C)(C)C)nn2C)cc1 [Compound D12],+ + +,–
COc1ccc(N(C)C(=O)N(C)c2cc(C(C)(C)C)no2)cc1 [Compound J8],–,< 5.00
CC(C)(C)c1cc(NC(=O)Nc2ccc(Oc3ccccc3)cc2)no1 [Compound A24],+ + + +,–
CC(C)(C)c1cc(NC(=O)Nc2ccc(OC(F)(F)F)cc2)on1 [Compound A13],+ +,–
CC(C)(C)c1cc(NC(=O)Nc2cccc(Cl)c2)no1 [Compound A48],+ + +,–
COc1ccc(N2CCCN(c3cc(C(C)(C)C)no3)C2=O)cc1 [Compound E5],+ +,–
COc1cccc(CNC(=O)Nc2cc(C(C)(C)C)on2)c1 [Compound B3],+ + + +,–
CC(C)(C)c1cc(NC(=O)Nc2ccc(Cl)cc2)on1 [Compound A32],+ + +,–
CC(C)(C)c1cc(NC(=O)Nc2ccc(CC(=O)O)cc2)no1 [Compound C3],+ +,–
CC(C)(C)c1cc(NC(=O)Nc2ccc3cc4ccccc4cc3c2)no1 [Compound A18],+ + +,–
Cc1ccc(NC(=O)Nc2cc(C(C)(C)C)on2)cc1 [Compound A33],+ + + +,–

# More lines, now with the values ahead:
Binding Assay: FLT3(DKIN),pKd,SMILES
+ + +,–,O=C(Nc1ccc(Cl)cc1)Nc1cc(C(F)(F)F)cc(Cl)n1 [Compound Z76]
+ + +,–,CC(C)(C)c1cc(NC(=O)Nc2ccc(C(=O)NCCO)cc2)no1 [Compound N87]
+ + +,–,O=C(Nc1ccc(Br)cc1)Nc1cc(C(F)(F)F)cc(Cl)n1 [Compound Z72]
–,< 5.00,CCN(CC)CCNC(=O)c1ccc(NC(=O)Nc2cc(C(C)(C)C)on2)cc1 [Compound N102]
+ + +,–,CC(C)(C)c1cc(NC(=O)Nc2ccc(NC(=O)Cc3ccc(OCc4ccccc4)cc3)cc2)no1 [Compound N98]
+ +,–,CC(C)(C)c1cc(NC(=O)Nc2ccc(NS(=O)(=O)c3ccccc3)cc2)no1 [Compound V1]
+ + +,–,CC(C)(C)c1cc(NC(=O)Nc2ccc(-c3nc(-c4ccc(C(F)(F)F)cc4)no3)cc2)no1 [Compound P8]
–,< 5.00,CC(C)(C)c1cc(NC(=O)Nc2ccc(S(=O)(=O)Nc3ncccn3)cc2)no1 [Compound V3]
+ + +,–,O=C(Nc1cccc(Cl)c1)Nc1cc(C(F)(F)F)cc(Cl)n1 [Compound Z74]
+ + + +,–,CC(C)(C)c1cc(NC(=O)Nc2ccc(NC(=O)C3CCCCC3)cc2)no1 [Compound N91]

# Source: US20050267182A1, “Urea derivatives as FLT-3 modulators” (Ambit Biosciences Corporation, priority 2003, published 2005)
